Holding throughout (assay): Test A pre/postemergence
Type in all cases: in vivo

Experiment [1] has as its system barnyardgrass (Echinochloa crus-galli). The method in brief: (§1)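 After planting in loam and sand, species received test chemical as preemergence soil spray; postemergence spray went on 2–10 cm plants at 1–2 leaves at the same time. Evaluation: visual injury, ~10 d, 0 no effect to 100 complete control.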
Experiment [2] relates to crabgrass (Digitaria sanguinalis). The essentials: as §1
Experiment [3] relates to giant foxtail (Setaria faberi). The method in brief:
as §1

The subject of experiment [4] is morningglory (Ipomoea spp.). The method in brief: as §1
Experiment [5] concerns redroot pigweed (Amaranthus retroflexus). The method in brief:
as §1

In experiment [6] the test system is velvetleaf (Abutilon theophrasti). The essentials: as §1
Where [7] appears, read: Postemergence, 125 g ai/ha, 0 to 100 scale (0 no effect, 100 complete control).
[8] abbreviates: Postemergence, 500 g ai/ha, 0 to 100 scale (0 no effect, 100 complete control).
[9] abbreviates: Preemergence, 125 g ai/ha, 0 to 100 scale where 0 is no effect and 100 is complete control, approximately ten days.
Where [10] appears, read: Preemergence, 500 g ai/ha, 0 to 100 scale where 0 is no effect and 100 is complete control, approximately ten days.

For `CCCCOCCOC(=O)c1nc(C2CC2)nc(N)c1Cl` [Compound 139], the “Plant response rating, Barnyardgrass” value in experiment [1] (setting [7]) amounted to 80; in experiment [1] (setting [8]) it was 90; in experiment [1] (setting [9]), 75; in experiment [1] (setting [10]), 90. For the same compound, the “Plant response rating, Crabgrass” value in experiment [2] (setting [7]) was found to be 60; in experiment [2] (setting [8]) it was 70; in experiment [2] (setting [9]) it was 75; in experiment [2] (setting [10]), 90. Besides, the “Plant response rating, Foxtail, Giant” value in experiment [3] (setting [7]) turned out to be 80; in experiment [3] (setting [8]), 80; in experiment [3] (setting [9]), 80; in experiment [3] (setting [10]), 90. Besides, the “Plant response rating, Morningglory” value came to 80 in experiment [4] (setting [7]), 90 in experiment [4] (setting [8]), 90 in experiment [4] (setting [9]) and 100 in experiment [4] (setting [10]). Besides, the “Plant response rating, Pigweed” value is listed as 90 in experiment [5] (setting [7]), 100 in experiment [5] (setting [8]), 90 in experiment [5] (setting [9]) and 100 in experiment [5] (setting [10]). Further, the “Plant response rating, Velvetleaf” value was found to be 85 in experiment [6] (setting [7]), 90 in experiment [6] (setting [8]), 90 in experiment [6] (setting [9]) and 90 in experiment [6] (setting [10]).
On to `COC(=O)c1nc(-c2ccc(SC)cc2)nc(N)c1Cl` [Compound 121], for which the “Plant response rating, Barnyardgrass” value is given as 0 in experiment [1] (setting [7]), 5 in experiment [1] (setting [8]), 0 in experiment [1] (setting [9]) and 0 in experiment [1] (setting [10]). Moreover, the “Plant response rating, Crabgrass” value in experiment [2] (setting [7]), in experiment [2] (setting [8]), in experiment [2] (setting [9]) and in experiment [2] (setting [10]) was 0 throughout. The “Plant response rating, Foxtail, Giant” value in experiment [3] (setting [7]), in experiment [3] (setting [8]), in experiment [3] (setting [9]) and in experiment [3] (setting [10]) was 0 throughout. Moreover, the “Plant response rating, Morningglory” value is 0 in experiment [4] (setting [7]), 10 in experiment [4] (setting [8]), 0 in experiment [4] (setting [9]) and 0 in experiment [4] (setting [10]). Besides, the “Plant response rating, Pigweed” value in experiment [5] (setting [7]), in experiment [5] (setting [8]), in experiment [5] (setting [9]) and in experiment [5] (setting [10]) was 0 in each case. Besides, the “Plant response rating, Velvetleaf” value in experiment [6] (setting [7]), in experiment [6] (setting [8]), in experiment [6] (setting [9]) and in experiment [6] (setting [10]) was 0 throughout.
In the case of `NC(=O)c1nc(-c2ccc(Br)cc2)nc(N)c1Br` [Compound 130], the “Plant response rating, Barnyardgrass” value in experiment [1] (setting [7]), in experiment [1] (setting [8]), in experiment [1] (setting [9]) and in experiment [1] (setting [10]) was 0 throughout. Besides, the “Plant response rating, Crabgrass” value in experiment [2] (setting [7]), in experiment [2] (setting [8]), in experiment [2] (setting [9]) and in experiment [2] (setting [10]) was 0 throughout. The “Plant response rating, Foxtail, Giant” value in experiment [3] (setting [7]), in experiment [3] (setting [8]), in experiment [3] (setting [9]) and in experiment [3] (setting [10]) was 0 in each case. In addition, the “Plant response rating, Morningglory” value in experiment [4] (setting [7]), in experiment [4] (setting [8]), in experiment [4] (setting [9]) and in experiment [4] (setting [10]) was 0 each time. Also, the “Plant response rating, Pigweed” value was found to be 0 in experiment [5] (setting [7]), 15 in experiment [5] (setting [8]), 0 in experiment [5] (setting [9]) and 0 in experiment [5] (setting [10]). Further, the “Plant response rating, Velvetleaf” value in experiment [6] (setting [7]) was 0; in experiment [6] (setting [8]), 30; in experiment [6] (setting [9]) it was 0; in experiment [6] (setting [10]), 0.
Consider `COC(=O)COC(=O)c1nc(C2CC2)nc(N)c1Cl` [Compound 148], for which the “Plant response rating, Barnyardgrass” value came to 68 in experiment [1] (setting [7]), 90 in experiment [1] (setting [8]), 65 in experiment [1] (setting [9]) and 85 in experiment [1] (setting [10]). The “Plant response rating, Crabgrass” value in experiment [2] (setting [7]) worked out at 10; in experiment [2] (setting [8]) it was 85; in experiment [2] (setting [9]), 45; in experiment [2] (setting [10]), 90. Moreover, the “Plant response rating, Foxtail, Giant” value in experiment [3] (setting [7]) was found to be 45; in experiment [3] (setting [8]) it was 80; in experiment [3] (setting [9]), 40; in experiment [3] (setting [10]) it was 80. The “Plant response rating, Morningglory” value is recorded as 90 in experiment [4] (setting [7]), 100 in experiment [4] (setting [8]), 90 in experiment [4] (setting [9]) and 100 in experiment [4] (setting [10]). Moreover, the “Plant response rating, Pigweed” value is 75 in experiment [5] (setting [7]), 95 in experiment [5] (setting [8]), 80 in experiment [5] (setting [9]) and 90 in experiment [5] (setting [10]). In addition, the “Plant response rating, Velvetleaf” value in experiment [6] (setting [7]) is 75; in experiment [6] (setting [8]) it was 95; in experiment [6] (setting [9]), 80; in experiment [6] (setting [10]), 100.
For `CCOC(=O)c1nc(-c2ccc(OC(F)(F)F)cc2)nc(N)c1Cl` [Compound 103], the “Plant response rating, Barnyardgrass” value in experiment [1] (setting [7]), in experiment [1] (setting [8]), in experiment [1] (setting [9]) and in experiment [1] (setting [10]) was 0 in each case. Besides, the “Plant response rating, Crabgrass” value in experiment [2] (setting [7]), in experiment [2] (setting [8]), in experiment [2] (setting [9]) and in experiment [2] (setting [10]) was 0 in each case. Besides, the “Plant response rating, Foxtail, Giant” value in experiment [3] (setting [7]), in experiment [3] (setting [8]), in experiment [3] (setting [9]) and in experiment [3] (setting [10]) was 0 in each case. The “Plant response rating, Morningglory” value in experiment [4] (setting [7]), in experiment [4] (setting [8]), in experiment [4] (setting [9]) and in experiment [4] (setting [10]) was 0 each time. The “Plant response rating, Pigweed” value came out at 0 in experiment [5] (setting [7]), 20 in experiment [5] (setting [8]), 0 in experiment [5] (setting [9]) and 10 in experiment [5] (setting [10]). Besides, the “Plant response rating, Velvetleaf” value in experiment [6] (setting [7]) is 45; in experiment [6] (setting [8]), 70; in experiment [6] (setting [9]), 0; in experiment [6] (setting [10]), 10.
